Legend:
[1] = target: T1, Hypoxia-inducible factor 1-alpha (Homo sapiens, UniProt Q16665); test: Inhibition of HIF-1alpha (unknown origin) transcriptional activity expressed in human MCF7 cells after 24 hrs under hypoxic condition by HRE luciferase reporter gene assay; format: cell-based
Target sequence in this assay (Q16665 whole entry): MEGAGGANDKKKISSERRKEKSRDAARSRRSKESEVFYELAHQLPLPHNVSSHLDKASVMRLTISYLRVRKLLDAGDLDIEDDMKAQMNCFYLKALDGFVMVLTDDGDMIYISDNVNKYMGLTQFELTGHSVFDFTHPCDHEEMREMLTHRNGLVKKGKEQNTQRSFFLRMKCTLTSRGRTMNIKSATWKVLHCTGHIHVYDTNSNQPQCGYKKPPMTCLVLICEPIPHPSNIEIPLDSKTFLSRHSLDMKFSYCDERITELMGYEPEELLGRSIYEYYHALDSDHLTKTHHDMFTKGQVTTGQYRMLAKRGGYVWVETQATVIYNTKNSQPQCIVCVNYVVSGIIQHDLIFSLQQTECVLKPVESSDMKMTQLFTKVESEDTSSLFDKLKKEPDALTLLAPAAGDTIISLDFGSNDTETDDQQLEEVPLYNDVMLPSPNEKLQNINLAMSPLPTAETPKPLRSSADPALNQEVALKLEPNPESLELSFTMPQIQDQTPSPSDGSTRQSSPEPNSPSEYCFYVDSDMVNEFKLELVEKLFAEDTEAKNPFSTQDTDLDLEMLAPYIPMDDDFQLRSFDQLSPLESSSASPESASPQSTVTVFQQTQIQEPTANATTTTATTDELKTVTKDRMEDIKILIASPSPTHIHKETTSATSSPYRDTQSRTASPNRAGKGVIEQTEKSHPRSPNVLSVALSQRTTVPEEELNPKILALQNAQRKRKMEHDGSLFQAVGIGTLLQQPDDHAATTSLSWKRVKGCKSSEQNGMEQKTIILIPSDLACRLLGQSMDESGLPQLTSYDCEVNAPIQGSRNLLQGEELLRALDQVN

MCF7 [2] = test: Cytotoxicity against human MCF7 cells harboring HRE-driven luciferase gene; format: cell-based
MCF7 [3] = test: Antiproliferative activity against human MCF7 cells after 72 hrs under hypoxic condition by MTT assay; format: functional, cell-based; details: MCF7, 72 h
MDA-MB-231 = test: Antiproliferative activity against human MDA-MB-231 cells after 72 hrs under hypoxic condition by MTT assay; format: functional, cell-based; details: MDA-MB-231, 72 h
MDA-MB-468 = test: Antiproliferative activity against human MDA-MB-468 cells after 72 hrs under hypoxic condition by MTT assay; format: functional, cell-based; details: MDA-MB-468, 72 h
MCF7 [4] = test: Downregulation of HIF-1alpha mRNA expression level in human MCF7 cells after 24 hrs under hypoxic condition by RT-PCR method; format: functional, cell-based
MCF7 [5] = test: Downregulation of HIF-1alpha protein expression level in human MCF7 cells after 24 hrs under hypoxic condition by Western blot method; format: functional, cell-based
[6] = target: T1, Hypoxia-inducible factor 1-alpha; test: Inhibition of HIF-1alpha transcriptional activity in human MCF7 cells assessed as reduction in VEGF mRNA level after 24 hrs under hypoxic condition by RT-PCR method; format: cell-based
Target sequence in this assay (Q16665 whole entry, looked up): as the sequence (Q16665 whole entry) above

[7] = target: T1, Hypoxia-inducible factor 1-alpha; test: Inhibition of HIF-1alpha transcriptional activity in human MCF7 cells assessed as reduction in VEGF secretion after 24 hrs under hypoxic condition by ELISA; format: cell-based
HUVEC [8] = test: Cytotoxicity against HUVEC assessed as reduction in cell viability at 2.5 to 50 uM after 24 hrs by MTT assay; format: cell-based; details: human
HUVEC [9] = test: Anti-migratory activity against HUVEC assessed as inhibition of hypoxia-induced cell movement after 24 hrs by wound healing assay; format: functional, cell-based; details: Homo sapiens
HUVEC [10] = test: Anti-angiogenic activity against HUVEC assessed as inhibition of hypoxia-induced tube formation after 24 hrs by 2-dimensional matrigel assay; format: functional, cell-based; details: Homo sapiens
Chorioallantoic membrane = test: Antiangiogenic activity in chicken chorioallantoic membrane assessed as inhibition of hypoxia-induced vessel formation after 3 days; format: functional; details: Gallus gallus

| SMILES | IC50 [1] [µM] | Activity (MCF7 [2]) | IC50 (MCF7 [3]) [µM] | IC50 (MDA-MB-231) [µM] | IC50 (MDA-MB-468) [µM] | Activity (MCF7 [4]) | Activity (MCF7 [5]) | inhibition [6] | IC50 [7] [µM] | inhibition [7] | Activity (HUVEC [8]) | inhibition (HUVEC [9]) | inhibition (HUVEC [10]) | inhibition (Chorioallantoic membrane) |
| --- | --- | --- | --- | --- | --- | --- | --- | --- | --- | --- | --- | --- | --- | --- |
| CCOC(=O)c1oc2ccc(NS(=O)(=O)c3ccccc3C)cc2c1C | 19.4 | Non-Toxic | 105 | 89.2 | 53.4 | – | – | – | – | – | – | – | – | – |
| CCOC(=O)c1oc2ccc(NS(=O)(=O)c3ccc(C(C)(C)C)cc3)cc2c1C | 27.1 | Non-Toxic | 22.1 | 22.4 | 8.1 | – | – | – | – | – | – | – | – | – |
| CCOC(=O)c1oc2ccc(NS(=O)(=O)c3ccc(Br)cc3)cc2c1C | 29.9 | Non-Toxic | 56.5 | 31.1 | 26.4 | – | – | – | – | – | – | – | – | – |
| CCOC(=O)c1oc2ccc(NS(=O)(=O)c3ccc(Cl)cc3)cc2c1C | 50 | Non-Toxic | 81.2 | 53.9 | 44 | – | – | – | – | – | – | – | – | – |
| CCOC(=O)c1oc2ccc(NS(=O)(=O)c3ccccc3C(F)(F)F)cc2c1C | 16.5 | Non-Toxic | 93.9 | 82.4 | 74.9 | – | – | – | – | – | – | – | – | – |
| CCOC(=O)c1oc2ccc(NS(=O)(=O)c3ccc([N+](=O)[O-])cc3)cc2c1C | 36.2 | Non-Toxic | 69.6 | 33.1 | 24 | – | – | – | – | – | – | – | – | – |
| CCOC(=O)c1oc2ccc(NS(=O)(=O)c3ccc(C)cc3)cc2c1C | 45.4 | Non-Toxic | 53.9 | 25.2 | 24 | – | – | – | – | – | – | – | – | – |
| CCOC(=O)c1oc2ccc(NS(=O)(=O)c3ccc4ccccc4c3)cc2c1C | 22.6 | Non-Toxic | 20.8 | 21.6 | 15.7 | – | – | – | – | – | – | – | – | – |
| CCOC(=O)c1oc2ccc(NS(=O)(=O)c3ccccc3Br)cc2c1C | 19.9 | Non-Toxic | 185 | 179 | 138 | – | – | – | – | – | – | – | – | – |
| CCOC(=O)c1oc2ccc(NS(=O)(=O)c3cccc(C)c3)cc2c1C | 32.7 | Non-Toxic | 101 | 29.5 | 25.3 | – | – | – | – | – | – | – | – | – |
| CCOC(=O)c1oc2ccc(NS(=O)(=O)c3cccc([N+](=O)[O-])c3)cc2c1C | 29.4 | Non-Toxic | 74.8 | 59.9 | 30.1 | – | – | – | – | – | – | – | – | – |
| CCOC(=O)c1oc2ccc(NS(=O)(=O)c3cccnc3)cc2c1C | 34.1 | Non-Toxic | > 200 | 141 | 62.9 | – | – | – | – | – | – | – | – | – |
| CCOC(=O)c1oc2ccc(NS(=O)(=O)c3cccc(Cl)c3)cc2c1C | 36.6 | Non-Toxic | 83.9 | 57.3 | 53.7 | – | – | – | – | – | – | – | – | – |
| CCOC(=O)c1oc2ccc(NS(=O)(=O)c3ccc(C(F)(F)F)cc3)cc2c1C | 41.7 | Non-Toxic | 48.7 | 24.3 | 27.2 | – | – | – | – | – | – | – | – | – |
| CCOC(=O)c1oc2ccc(NS(=O)(=O)c3ccccc3[N+](=O)[O-])cc2c1C | 24.4 | Non-Toxic | 157 | 80.4 | 96.9 | – | – | – | – | – | – | – | – | – |
| CCOC(=O)c1oc2ccc(NS(=O)(=O)c3cccc(Br)c3)cc2c1C | 25.6 | Non-Toxic | 57 | 33.7 | 30.7 | – | – | – | – | – | – | – | – | – |
| CCOC(=O)c1oc2ccc(NS(=O)(=O)c3cc(OC)ccc3OC)cc2c1C | 15.5 | Non-Toxic | 52.3 | 26.7 | 20.7 | – | – | – | – | – | – | – | – | – |
| CCOC(=O)c1oc2ccc(NS(=O)(=O)c3cccs3)cc2c1C | 45.4 | Non-Toxic | 92.3 | 44.1 | 34.3 | – | – | – | – | – | – | – | – | – |
| CCOC(=O)c1oc2ccc(NS(=O)(=O)c3ccc(OC)c(OC)c3)cc2c1C | 12.5 | Non-Toxic | 52 | 35.4 | 20.5 | Dose-dependent effect | Dose-dependent effect | Dose-dependent effect | 18.8 | Dose-dependent effect | Non-Toxic | Dose-dependent effect | Dose-dependent effect | Dose-dependent effect |
| CCOC(=O)c1oc2ccc(NS(=O)(=O)c3cccc(C(F)(F)F)c3)cc2c1C | 36.3 | Non-Toxic | 51.4 | 30.2 | 28.9 | – | – | – | – | – | – | – | – | – |
| CCOC(=O)c1oc2ccc(NS(=O)(=O)c3ccccc3Cl)cc2c1C | 20.8 | Non-Toxic | > 200 | > 200 | 137 | – | – | – | – | – | – | – | – | – |

Reference: ChEMBL document CHEMBL3992551, “Synthesis and evaluation of N-(benzofuran-5-yl)aromaticsulfonamide derivatives as novel HIF-1 inhibitors that possess anti-angiogenic potential” (Bioorg Med Chem, 2017)
